Assay results published in publication PMC4191062, “Development of αGlcN(1↔1)αMan-Based Lipid A Mimetics as a Novel Class of Potent Toll-like Receptor 4 Agonists” (Journal of Medicinal Chemistry, 2014).
Like-named read-outs stand apart in the source and are kept apart here.

What was measured:
[1] = molecular target: hTLR4/hMD-2/CD14-transfected HEK293 cells (Homo sapiens, UniProt O00206+Q9Y6Y9); assay: hTLR4/MD-2/CD14-transfected HEK293 (HEK-Blue) activation assay, NF-κB-dependent SEAP reporter; format: cell-based; conditions: for concentration at which TLR4 saturation plateau was reached: NF-κB/SEAP dose response
Excerpt: The propensity of the α,α-GM-LAMs 1–3 to stimulate TLR4-mediated immune signaling was first assessed in the hTLR4/hMD-2/CD14 transfected human embryonic kidney (HEK) 293 cells (HEK-Blue). Since we were particularly interested in the molecular recognition mechanisms implicated in the binding of LPS by the MD-2·TLR4 complex wherein the Lipid A/Re-LPS portion of LPS is exclusively involved, we evaluated the activities of α,α-GM-LAMs 1–3 compared to E. coliRe-LPS (Figure 1A). It has been previously shown that the minimum structural requirement for the expression of the highest cytokine-inducing potency resides in Re-LPS, which entails two 3-deoxy-D-manno-oct-2-ulosonic acid (Kdo) residues in addition to Lipid A (Supporting Information, SI-Figure 1A).[54],[55] Moreover, the Re-LPS has a defined molecular weight (MW) similar to the MW range for Lipid A mimetics (1.8–2.2 kDa), in contrast to wild-type LPS having variable MW (10–15 kDa), so that the direct comparison of a dose-dependent response between compounds 1–3 and Re-LPS is more appropriate. The TLR4-stimulating activity of Lipid A mimetics 1–3 was examined over a wide concentration range by monitoring of the activation of the NF-κB regulated signal transduction pathway via measuring the induction of secreted embryonic alkaline phosphatase (SEAP) and compared to the responses elicited by E. coliRe-LPS and SM-MPLA.
Growth conditions and activation assay were set as recommended by InvivoGen. The cells were stimulated with the solutions of compounds 1–3 or LPS/Re-LPS in DMEM supplemented by 10% FCS at the indicated concentrations. […] The compounds were added in a total volume of 20 μL to 25000 HEK-Blue hTLR4 cells in 180 μL plates and were incubated for 20–24 h at 37 °C and 5% CO2. SEAP levels were determined by incubation of 20 μL of challenged cell supernatants with 180 μL of detection reagent (QUANTI-Blue), and the color development was measured at 650 nm using a spectrophotometer (SpectraMAX 190). Data were combined from n = 3 independent experiments; error bars indicate standard error of the mean.
Supplementary SI-Figure 1
E. coli Re-LPS E. coli O111:B4
SI-Figure 1. (A) Dose-dependent activation of TLR4 signaling in hTLR4/hMD-2/hCD14 transfected HEK293 cells (HEK-Blue) by E. coli Re-LPS compared to E. coli O111:B4 LPS. [nM] concentrations were calculated from [ng/ml] concentrations based on the following molecular weights (MW): MWE. coli Re-LPS 2339 Da, MWE. coli O111:B4 LPS 10000 Da. (B) Dose-dependent activation of TLR4 signaling in hTLR4/hMD-2/hCD14 transfected HEK293 cells (HEK-Blue) by Lipid A mimetics 1- 3 compared to E. coli Re-LPS and S. minnesota MPLA. Non-linear curve fit (variable slope) was calculated using GraphPad Prism and is shown for the mean curves. Dotted lines indicate corresponding Ec50 values. Statistical analysis was performed on non-linear curve fits on individual datasets using an un-paired two-tailed t-test (*** indicates a p value < 0.001, ns indicates non-significant change). Top, bottom, hill slope and Ec50 values of non-linear curve fit on individual datasets are shown. […]

[2] = system: bone marrow-derived macrophages (BMDM); assay: TNF-α and IL-6 production in mouse bone marrow-derived macrophages (ELISA); format: cell-based, C57BL/6J mice; conditions: mBMDM
Method: The ability of Lipid A mimetics 1–3 to induce the production of TNF-α and IL-6 from bone marrow-derived macrophages (BMDM) in mice was subsequently examined and compared to that of synthetic E. coli Lipid A and E. coli MPLA, which are reliable positive controls due to their chemical purity and homogeneity (Figure 6). […] Likewise, 1 nM (1.8 ng/mL) of 1 or 2 triggered the release of a 3-fold higher amount of IL-6 (1500 pg/mL) compared to Lipid A (500 pg/mL).
Bone-marrow-derived microphages (BMDMs) were isolated and differentiated from the bone marrow of C57BL/6J mice. The bone marrow was flushed from femur and fibia with RPMI media. The erythrocytes were lysed with 0.88% ammonium chloride, 15 min at 37 °C. A single-cell suspension of the bone marrow cells was then seeded in cell culture flasks at a concentration of 1 × 10^6 cells/mL in RPMI supplemented with 20% FBS and 40 ng/mL recombinant M-CSF. The cell culture medium was changed on day 3. On day 6, the differentiated cells were trypsinized, counted, and seeded in 24-well plates at a concentration of 1 × 10^6 cells/mL in RPMI supplemented with 10% FBS. After 24 h, the cells were stimulated with Lipid A mimetics 1–3 and with synthetic E. coli Lipid A/MPLA (E. coli O111:B4 LPS was used as positive control) for 16 h. The nanomolar concentrations of 1–3 were calculated according to the MW of the synthetic compounds. The supernatants were then tested for cytokines using Ready-Set-Go ELISA kits (eBioscience).

[3] = SEAP induction, 20–24 h, mean curve, nM calculated from ng/ml via MW, read-out: EC50 NF-κB activation
[4] = SEAP induction, mean curve, read-out: Ec50 (ng/ml) (converted)
[5] = dataset n1, read-out: Ec50 (ng/ml), non-linear curve fit on individual dataset (converted)
[6] = dataset n2, read-out: Ec50 (ng/ml), non-linear curve fit on individual dataset (converted)
[7] = dataset n3, read-out: Ec50 (ng/ml), non-linear curve fit on individual dataset (converted)

Sequence of hTLR4/hMD-2/CD14-transfected HEK293 cells (O00206 24-839): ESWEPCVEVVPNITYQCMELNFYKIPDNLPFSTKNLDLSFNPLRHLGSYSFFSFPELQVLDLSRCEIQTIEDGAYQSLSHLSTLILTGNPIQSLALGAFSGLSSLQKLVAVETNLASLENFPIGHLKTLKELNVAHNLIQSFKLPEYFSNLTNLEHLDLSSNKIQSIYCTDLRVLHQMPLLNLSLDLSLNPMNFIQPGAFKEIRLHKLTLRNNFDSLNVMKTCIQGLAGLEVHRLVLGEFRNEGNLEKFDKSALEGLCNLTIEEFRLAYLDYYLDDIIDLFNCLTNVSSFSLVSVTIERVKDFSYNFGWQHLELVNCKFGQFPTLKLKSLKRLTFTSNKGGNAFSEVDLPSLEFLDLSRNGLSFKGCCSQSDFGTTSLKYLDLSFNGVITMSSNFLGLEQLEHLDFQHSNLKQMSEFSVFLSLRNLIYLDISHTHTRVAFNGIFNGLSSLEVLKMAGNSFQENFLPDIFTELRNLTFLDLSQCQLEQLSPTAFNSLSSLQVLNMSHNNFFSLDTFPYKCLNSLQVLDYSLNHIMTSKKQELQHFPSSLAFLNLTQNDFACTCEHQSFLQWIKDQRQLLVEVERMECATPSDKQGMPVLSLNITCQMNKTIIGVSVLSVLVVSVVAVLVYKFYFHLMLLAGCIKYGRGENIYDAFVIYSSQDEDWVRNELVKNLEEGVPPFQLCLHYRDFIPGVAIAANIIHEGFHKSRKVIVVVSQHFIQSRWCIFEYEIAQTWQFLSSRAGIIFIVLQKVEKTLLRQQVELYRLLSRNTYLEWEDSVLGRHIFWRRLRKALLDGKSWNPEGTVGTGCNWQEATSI
Sequence of hTLR4/hMD-2/CD14-transfected HEK293 cells (Q9Y6Y9 17-160 limits assumed): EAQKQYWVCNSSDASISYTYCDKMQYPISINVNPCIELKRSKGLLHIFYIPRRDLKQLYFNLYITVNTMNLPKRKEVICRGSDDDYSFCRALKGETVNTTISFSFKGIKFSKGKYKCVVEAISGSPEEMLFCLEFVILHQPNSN

Compound: CCCCCCCCCCCCCC(=O)O[C@H](CCCCCCCCCCC)CC(=O)O[C@@H]1[C@@H](NC(=O)C[C@@H](CCCCCCCCCCC)OC(=O)CCCCCCCCCCC)[C@@H](O[C@H]2O[C@H](COP(=O)(O)O)[C@@H](OC(=O)C[C@@H](CCCCCCCCCCC)OC(=O)CCCCCCCCC)[C@H](O)[C@@H]2OC)O[C@H](CO)[C@H]1OP(=O)(O)O [Compound 2, 4-O-[(R)-3-(Decanoyloxy)tetradecanoyl]-2-O-methyl-6-O-phosphoryl-α-mannopyranosyl-(1↔1)-2-deoxy-2-[(R)-3-(dodecanoyloxy)tetradecanoylamino]-4-O-phosphoryl-3-O-[(R)-3-(tetradecanoyloxy)tetradecanoyl]-α-D-glucopyranoside]
- fold increase of TLR-4 stimulating activity on shortening lipid side chain at Man C-4 by 2×CH2 ([1]; 2 compared with 1): 5 fold
- concentration at which TLR4 saturation plateau was reached [1]: 1 ng/mL
- EC50 [1, 3]: 0.08 nM
- EC50 [1, 4]: 0.0804 nM
- Bottom of non-linear curve fit ([1]; dataset n1): 0.216
- HillSlope of non-linear curve fit ([1]; dataset n1): 1.193
- Top of non-linear curve fit ([1]; dataset n1): 1.330
- EC50 [1, 5]: 0.0884 nM
- Bottom of non-linear curve fit ([1]; dataset n2): 0.232
- HillSlope of non-linear curve fit ([1]; dataset n2): 1.250
- Top of non-linear curve fit ([1]; dataset n2): 1.319
- EC50 [1, 6]: 0.0827 nM
- Bottom of non-linear curve fit ([1]; dataset n3): 0.236
- HillSlope of non-linear curve fit ([1]; dataset n3): 1.246
- Top of non-linear curve fit ([1]; dataset n3): 1.320
- EC50 [1, 7]: 0.0758 nM
- fold higher amount of IL-6 compared to Lipid A ([2]; 1 nM): 3 fold

Compound: CCCCCCCCCCCCCC(=O)O[C@H](CCCCCCCCCCC)CC(=O)O[C@@H]1[C@@H](NC(=O)C[C@@H](CCCCCCCCCCC)OC(=O)CCCCCCCCCCC)[C@@H](O[C@H]2O[C@H](CO)[C@@H](OC(=O)C[C@@H](CCCCCCCCCCC)OC(=O)CCCCCCCCCCC)[C@H](O)[C@@H]2OC)O[C@H](CO)[C@H]1OP(=O)(O)O [Compound 3, 4-O-[(R)-3-(Dodecanoyloxy)tetradecanoyl]-2-O-methyl-α-D-mannopyranosyl-(1↔1)-2-deoxy-2-[(R)-3-(dodecanoyloxy)tetradecanoylamino]-4-O-phosphoryl-3-O-[(R)-3-(tetradecanoyloxy)tetradecanoyl]-α-D-glucopyranoside]
- EC50 [1, 3]: 31 nM
- EC50 [1, 4]: 30.8 nM
- activation profile compared to SM-MPLA ([1]; at concentrations above 10 ng/mL): more potent activation profile than SM-MPLA
- Bottom of non-linear curve fit ([1]; dataset n1): 0.217
- HillSlope of non-linear curve fit ([1]; dataset n1): 1.120
- Top of non-linear curve fit ([1]; dataset n1): 1.425
- EC50 [1, 5]: 30.5 nM
- Bottom of non-linear curve fit ([1]; dataset n2): 0.221
- HillSlope of non-linear curve fit ([1]; dataset n2): 1.170
- Top of non-linear curve fit ([1]; dataset n2): 1.426
- EC50 [1, 6]: 28.2 nM
- Bottom of non-linear curve fit ([1]; dataset n3): 0.216
- HillSlope of non-linear curve fit ([1]; dataset n3): 1.145
- Top of non-linear curve fit ([1]; dataset n3): 1.453
- EC50 [1, 7]: 34.1 nM
- expression level of IL-6 ([2]; 1 nM): only marginal expression level
- IL-6 release compared to MPLA ([2]; concentrations above 1 nM): higher IL-6 release than MPLA

Compound: CCCCCCCCCCCCCC(=O)O[C@H](CCCCCCCCCCC)CC(=O)O[C@@H]1[C@@H](NC(=O)C[C@@H](CCCCCCCCCCC)OC(=O)CCCCCCCCCCC)[C@@H](O[C@H]2O[C@H](COP(=O)(O)O)[C@@H](OC(=O)C[C@@H](CCCCCCCCCCC)OC(=O)CCCCCCCCCCC)[C@H](O)[C@@H]2OC)O[C@H](CO)[C@H]1OP(=O)(O)O [Compound 1, 4-O-[(R)-3-(Dodecanoyloxy)tetradecanoyl]-2-O-methyl-6-O-phosphoryl-α-D-mannopyranosyl-(1↔1)-2-deoxy-2-[(R)-3-(dodecanoyloxy)tetradecanoylamino]-4-O-phosphoryl-3-O-[(R)-3-(tetradecanoyloxy)tetradecanoyl]-α-D-glucopyranoside]
- concentration at which TLR4 saturation plateau was reached [1]: 5 ng/mL
- EC50 [1, 3]: 0.4 nM
- EC50 [1, 4]: 0.424 nM
- Bottom of non-linear curve fit ([1]; dataset n1): 0.212
- HillSlope of non-linear curve fit ([1]; dataset n1): 1.282
- Top of non-linear curve fit ([1]; dataset n1): 1.369
- EC50 [1, 5]: 0.505 nM
- Bottom of non-linear curve fit ([1]; dataset n2): 0.225
- HillSlope of non-linear curve fit ([1]; dataset n2): 1.341
- Top of non-linear curve fit ([1]; dataset n2): 1.312
- EC50 [1, 6]: 0.352 nM
- Bottom of non-linear curve fit ([1]; dataset n3): 0.215
- HillSlope of non-linear curve fit ([1]; dataset n3): 1.257
- Top of non-linear curve fit ([1]; dataset n3): 1.348
- EC50 [1, 7]: 0.421 nM
- fold higher amount of IL-6 compared to Lipid A ([2]; 1 nM): 3 fold
